Source: article PMC11999280, “Design and screening of novel endosomal escape compounds that enhance functional delivery of oligonucleotides in vitro” (Molecular Therapy. Nucleic Acids, 2025)

System: HeLa_Luc705 cells (pLuc/705 splice-switching reporter)
Assay: Functional 705-SSO delivery, luciferase splice-switching assay
Assay type: cell-based
Conditions: HeLa-Luc705 + 1 µM SSO, mean from >3 independent experiments
Excerpt: Therefore, next, we functionally screened the SSO delivery in the HeLa_Luc705 reporter cell line. HeLa_Luc705 carries a pLuc/705 splice-switching reporter luciferase gene interrupted by a mutated β-globin intron, which creates a preferentially used cryptic 5′ splice site leading to aberrant splicing. Functional SSO delivery masks the cryptic site, redirecting the splicing machinery to the right splicing site, allowing the measurement of luciferase expression (Figure S1).[25]^,[26]^,[27]^,[28] We used SSO transfection with LF2000 as transfection control and the previously published endosomal escape enhancer CMP05 (here, EEE2) as positive control.[15]
For the assessment of functional SSO therapeutics, a HeLa_Luc705 cell line was grown in DMEM media supplemented with 10% fetal bovine serum (FBS). For most treatments, 10,000 cells/well were seeded in a 96-well plate, 24 h pre-incubated with 1- to 2-μM oligonucleotide, and then treated at the described EEE concentration. At 24 h post-treatment, cells were PBS rinsed and collected for further analysis (treatments and incubation times changed accordingly to the experiment design). Luciferase readout was performed as previously described,[15] using a GloMax 96-well plate microplate luminometer (Promega) immediately after adding 30 μL auto-injected luciferin substrate (Promega Firefly Luciferase Assay System; Thermo Scientific, catalog no. 16174) in a white-walled 96-well plate containing 30 μL 0.1% Triton X-100 (Sigma-Aldrich) cell lysed. Photon exposure time and delay were set to 10 and 2 s after injection. LF2000 was used as the transfection reagent control (Thermo Scientific, catalog no. 11668019). For EEE experiments using 1 or 2 μM SSOs, the control was prepared using lipofection with 100–200 nM SSO; this is to avoid complex induced cell toxicity.
705-SSO was purchased from and synthesized by Integrated DNA Technologies. The 705-SSO sequence was previously published, containing 2′-O-methylated bases and only phosphorothioate-saturated backbone linkages were included.[15] The 705-SSO was high-performance liquid chromatography purified, shipped, and stored in IDTE buffer (10 mM Tris, 0.1 mM EDTA).

`COc1nn(C2CCNCC2C)cc1Nc1ncc(F)c(-n2ccc3c(C#N)cccc32)n1` (stereo not drawn) [EEE35] was tested, and the “Luciferase expression compared to reference” value (EEE 0.5 µM) was 1.095, the “Luciferase expression compared to reference” value (EEE 2 µM) was 1.804 and the “Luciferase expression compared to reference” value (EEE 4 µM) was 4.870. For the same compound, the “Luciferase expression compared to reference” value (EEE 5 µM) was 9.588, the “Luciferase expression compared to reference” value (EEE 1-1.25 µM) was 1.101 and the “Luciferase expression compared to reference” value (EEE 2.5 - 3 µM) was 2.812.
